Measurements: US12077503B2, “Substituted cyclic amides and their use as herbicides” (FMC CORPORATION, priority 2015, dated 2024)

Columns and labels:
Format in all cases: in vivo
[1] = tested on: ryegrass, Italian (Italian ryegrass, Lolium multiflorum); test: Test A preemergence; details: Lolium multiflorum, pre-emergence, 240 h; for pest or weed control at 125 g/ha: 125 g ai/ha, preemergence, visual rating after approx. 10 d, 0 to 100 scale where 0 is no effect and 100 is complete control
How it was run: (§1)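 Greenhouse, ~10 d after spray; visual injury vs untreated controls, 0 = no effect, 100 = complete control. Preemergence: directed soil spray over planted seeds. Postemergence: plants 2–10 cm, 1–2 leaf stage. Loam/sand blend. Compound in non-phytotoxic solvent with surfactant.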

[2] = tested on: ragweed (common ragweed, Ambrosia elatior); test: Test A preemergence; details: Ambrosia artemisiifolia, pre-emergence, 240 h; for pest or weed control at 125 g/ha: 125 g ai/ha, preemergence, visual rating after approx. 10 d, 0 to 100 scale where 0 is no effect and 100 is complete control
How it was run: as §1

[3] = tested on: Kochia (Kochia scoparia); test: Test A preemergence; details: Bassia scoparia, pre-emergence, 240 h; for pest or weed control at 125 g/ha: 125 g ai/ha, preemergence, visual rating after approx. 10 d, 0 to 100 scale where 0 is no effect and 100 is complete control
How it was run: as §1

[4] = tested on: barnyardgrass (Echinochloa crus-galli); test: Test A preemergence; details: Echinochloa crus-galli, pre-emergence, 240 h; for pest or weed control at 125 g/ha: 125 g ai/ha, preemergence, visual rating after approx. 10 d, 0 to 100 scale where 0 is no effect and 100 is complete control
How it was run: as §1

[5] = tested on: giant foxtail (Setaria faberii); test: Test A preemergence; details: Setaria faberi, pre-emergence, 240 h; for pest or weed control at 125 g/ha: 125 g ai/ha, preemergence, visual rating after approx. 10 d, 0 to 100 scale where 0 is no effect and 100 is complete control
How it was run: as §1

[6] = tested on: pigweed (Amaranthus retroflexus); test: Test A preemergence; details: Amaranthus retroflexus, pre-emergence, 240 h; for pest or weed control at 125 g/ha: 125 g ai/ha, preemergence, visual rating after approx. 10 d, 0 to 100 scale where 0 is no effect and 100 is complete control
[7] = tested on: corn (Zea mays); test: Test A postemergence; details: Zea mays, post-emergence, 240 h; for plant injury at 125 g/ha: 125 g ai/ha, postemergence, visual injury rating after approximately 10 d, read-out: Corn plant response rating (0 to 100 scale, 0 no effect, 100 complete control)
How it was run: as §1

[8] = tested on: wheat (Triticum aestivum); test: Test A postemergence; details: Triticum aestivum, post-emergence, 240 h; for plant injury at 125 g/ha: 125 g ai/ha, postemergence, visual injury rating after approximately 10 d, read-out: Wheat plant response rating (0 to 100 scale, 0 no effect, 100 complete control)
How it was run: as §1

[9] = tested on: ryegrass, Italian (Italian ryegrass, Lolium multiflorum); test: Test A postemergence; details: Lolium multiflorum, post-emergence, 240 h; for pest or weed control at 125 g/ha: 125 g ai/ha, postemergence, visual injury rating after approximately 10 d, read-out: Ryegrass, Italian plant response rating (0 to 100 scale, 0 no effect, 100 complete control)
How it was run: as §1

[10] = tested on: pigweed (Amaranthus retroflexus); test: Test A postemergence; details: Amaranthus retroflexus, post-emergence, 240 h; for pest or weed control at 125 g/ha: 125 g ai/ha, postemergence, visual injury rating after approximately 10 d, read-out: Pigweed plant response rating (0 to 100 scale, 0 no effect, 100 complete control)
How it was run: as §1

[11] = tested on: ducksalad (Heteranthera limosa); test: Test B flooded paddy test; details: Heteranthera limosa, Flood, 250 g ai/ha; scale of 0 to 100 where 0 is no effect and 100 is complete control; read-out: Ducksalad plant response rating
How it was run: (§2)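 2-leaf plants; pots flooded 3 cm over soil; cpd added to paddy water; depth held; greenhouse 13–15 d; visual rating vs controls, 0 = no effect, 100 = complete control.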

[12] = tested on: barnyardgrass (Echinochloa crus-galli); test: Test B flooded paddy test; details: Echinochloa crus-galli, Flood, 250 g ai/ha; scale of 0 to 100 where 0 is no effect and 100 is complete control; read-out: Barnyardgrass plant response rating
How it was run: as §2

[13] = tested on: rice (Oryra sativa); test: Test B flooded paddy test; details: Oryza sativa, Flood, 250 g ai/ha; scale of 0 to 100 where 0 is no effect and 100 is complete control; read-out: Rice plant response rating
How it was run: as §2

[14] = tested on: sedge, umbrella (small-flower umbrella sedge, Cyperus difformis); test: Test B flooded paddy test; details: Cyperus difformis, Flood, 250 g ai/ha; scale of 0 to 100 where 0 is no effect and 100 is complete control; read-out: Sedge, Umbrella plant response rating
How it was run: as §2

[15] = read-out: Plant response rating, Ryegrass, Italian
[16] = read-out: Plant response rating, Ragweed
[17] = read-out: Plant response rating, Kochia
[18] = read-out: Plant response rating, Barnyardgrass
[19] = read-out: Plant response rating, Foxtail, Giant
[20] = read-out: Plant response rating, Pigweed

Structure (SMILES)	pest or weed control at 125 g/ha [1, 15]	pest or weed control at 125 g/ha [2, 16]	pest or weed control at 125 g/ha [3, 17]	pest or weed control at 125 g/ha [4, 18]	pest or weed control at 125 g/ha [5, 19]	pest or weed control at 125 g/ha [6, 20]	plant injury at 125 g/ha [7]	plant injury at 125 g/ha [8]	pest or weed control at 125 g/ha [9]	pest or weed control at 125 g/ha [10]	pest or weed control at 250 g/ha [11]	pest or weed control at 250 g/ha [12]	pest or weed control at 250 g/ha [13]	pest or weed control at 250 g/ha [14]	also measured
CN1CC[C@H](c2ccc3c(c2)OC(F)(F)O3)[C@@H](C(=O)Nc2ccc(F)c(F)c2F)C1=O [Compound 813]	20%	0%	0%	80%	90%	0%	40%	30%	20%	0%	100%	70%	20%	0%	pest or weed control at 31 g/ha ([1]; Preemergence, 31 g ai/ha, 0 to 100 scale (0 no effect, 100 complete control), read-out: Plant response rating, Ryegrass, Italian): 0%; pest or weed control at 31 g/ha ([2]; Preemergence, 31 g ai/ha, 0 to 100 scale (0 no effect, 100 complete control), read-out: Plant response rating, Ragweed): 0%; pest or weed control at 31 g/ha ([3]; Preemergence, 31 g ai/ha, 0 to 100 scale (0 no effect, 100 complete control), read-out: Plant response rating, Kochia): 0%; pest or weed control at 31 g/ha ([4]; Preemergence, 31 g ai/ha, 0 to 100 scale (0 no effect, 100 complete control), read-out: Plant response rating, Barnyardgrass): 20%; pest or weed control at 31 g/ha ([5]; Preemergence, 31 g ai/ha, 0 to 100 scale (0 no effect, 100 complete control), read-out: Plant response rating, Foxtail, Giant): 70%; pest or weed control at 31 g/ha ([6]; Preemergence, 31 g ai/ha, 0 to 100 scale (0 no effect, 100 complete control), read-out: Plant response rating, Pigweed): 0%; Corn plant response rating (crop injury, 0 = no effect, 100 = complete kill) at 31 g/ha ([7]; Postemergence, 31 g ai/ha, visual injury after approx. 10 d, 0 to 100 scale, 0 no effect, 100 complete control): 30%; plant injury at 31 g/ha ([8]; Postemergence, 31 g ai/ha, visual injury after approx. 10 d, 0 to 100 scale, 0 no effect, 100 complete control, read-out: Plant response rating, Wheat): 0%; pest or weed control at 31 g/ha ([9]; Postemergence, 31 g ai/ha, visual injury after approx. 10 d, 0 to 100 scale, 0 no effect, 100 complete control, read-out: Plant response rating, Ryegrass, Italian): 0%; pest or weed control at 31 g/ha ([10]; Postemergence, 31 g ai/ha, visual injury after approx. 10 d, 0 to 100 scale, 0 no effect, 100 complete control, read-out: Plant response rating, Pigweed): 0%
CN1C[C@H](c2cccc(C3CC3)c2)[C@@H](C(=O)Nc2ccccc2F)C1=O [Compound 815]	80%	0%	70%	90%	90%	30%	50%	30%	60%	20%	75%	65%	20%	0%	pest or weed control at 500 g/ha ([1]; 500 g ai/ha, Preemergence, visual injury vs untreated controls after approximately 10 d, read-out: Ryegrass, Italian plant response rating (0 to 100 scale where 0 is no effect and 100 is complete control)): 80%; pest or weed control at 500 g/ha ([2]; 500 g ai/ha, Preemergence, visual injury vs untreated controls after approximately 10 d, read-out: Ragweed plant response rating (0 to 100 scale where 0 is no effect and 100 is complete control)): 0%; pest or weed control at 500 g/ha ([3]; 500 g ai/ha, Preemergence, visual injury vs untreated controls after approximately 10 d, read-out: Kochia plant response rating (0 to 100 scale where 0 is no effect and 100 is complete control)): 80%; pest or weed control at 500 g/ha ([4]; 500 g ai/ha, Preemergence, visual injury vs untreated controls after approximately 10 d, read-out: Barnyardgrass plant response rating (0 to 100 scale where 0 is no effect and 100 is complete control)): 100%; pest or weed control at 500 g/ha ([5]; 500 g ai/ha, Preemergence, visual injury vs untreated controls after approximately 10 d, read-out: Foxtail, Giant plant response rating (0 to 100 scale where 0 is no effect and 100 is complete control)): 100%; pest or weed control at 500 g/ha ([6]; 500 g ai/ha, Preemergence, visual injury vs untreated controls after approximately 10 d, read-out: Pigweed plant response rating (0 to 100 scale where 0 is no effect and 100 is complete control)): 50%
